Test results from US20260365673A1, “PYRROLO[2,3-D]PYRIMIDIN-4-AMINE DERIVATIVE AND USE THEREOF IN MEDICINE” (HAISCO PHARMACEUTICAL GROUP CO., LTD., priority 2023, published 2026).

Columns and labels:
[1] = Pharmacokinetic Test in Rats (Inhalation Administration); conditions: rat, in vivo, inhaled or intranasal, male SD rats, single dose 0.03 mg/kg; for Cmax / AUC(0-t): lung tissue; for AUC(0-t): read-out: Lung AUC0-t; for Kp: read-out: Lung AUC0-t/plasma AUC0-t
Experimental: 4: Pharmacokinetic Test in Rats (Inhalation Administration)
The samples were analyzed quantitatively by LC-MS/MS.

[2] = 12-week, PATENT-1, riociguat group, cited from earlier work

Row | SMILES | Cmax [1] [ng/mL] | AUC(0-t) [1] [ng·h/mL] | Kp [1] | anemia ([2]; placebo 2%) [%] | gastroesophageal reflux disease ([2]; placebo 2%) [%] | diarrhea ([2]; placebo 8%) [%]
1 | CC(C)(Cc1csc([C@]2(C)C(=O)Nc3nc(-n4nc(CCC(F)(F)C(F)(F)F)c5cc(Cl)ccc54)nc(N)c32)n1)C(=O)O (single isomer, unassigned) [Compound 4-1] | 2350 | 2460 | 77.1 | – | – | –
2 | CC(C)(Cc1csc(C2(C)C(=O)Nc3nc(-n4nc(Cc5ccccc5F)c5ncc(F)cc54)nc(N)c32)n1)C(=O)O (single isomer, unassigned) [Compound 35-1] | 2540 | 5430 | – | – | – | –
3 | CC(C)(Cc1csc(C2(C)C(=O)Nc3nc(-n4nc(Cc5cccc(F)c5F)c5ncc(F)cc54)nc(N)c32)n1)C(=O)O (single isomer, unassigned) [Compound 36-1] | 4070 | 10100 | 49.1 | – | – | –
4 | CC(C)(Cc1csc(C2(C)C(=O)Nc3nc(-n4nc(CCC(F)(F)C(F)(F)F)c5ncc(F)cc54)nc(N)c32)n1)C(=O)O (single isomer, unassigned) [Compound 37-1] | 1730 | 3280 | – | – | – | –
5 | CC(C)(Cc1csc([C@]2(C)C(=O)Nc3nc(-c4nc(CCC(F)(F)C(F)(F)F)n5ncccc45)nc(N)c32)n1)C(=O)O [Compound 3-1] | 2980 | 3630 | 65 | – | – | –
6 | CC(C)(Cc1cccc([C@@]2(C)C(=O)Nc3nc(-c4nn(CCC(F)(F)C(F)(F)F)c5cc(Cl)cnc45)nc(N)c32)c1)C(=O)O [Compound 6-1] | 2820 | 5170 | 659 | – | – | –
7 | CC(C)(Cc1csc([C@]2(C)C(=O)Nc3nc(-n4nc(CCC(F)(F)C(F)(F)F)c5cc(F)ccc54)nc(N)c32)n1)C(=O)O [Compound 17-1] | 1750 | 2020 | 48.4 | – | – | –
8 | CC(C)(Cc1csc([C@]2(C)C(=O)Nc3nc(-c4nc(Cc5ccccc5F)n5ncccc45)nc(N)c32)n1)C(=O)O [Compound 19-1] | 2840 | 12200 | 245 | – | – | –
9 | CC(C)(Cc1csc([C@]2(C)C(=O)Nc3nc(-n4c(=O)n(CCC(F)(F)C(F)(F)F)c5cc(F)ccc54)nc(N)c32)n1)C(=O)O [Compound 31-1] | 1180 | 608 | 97.9 | – | – | –
10 | CC(C)(Cc1csc([C@]2(C)C(=O)Nc3nc(-n4c(=O)n(Cc5ccccc5F)c5cc(F)ccc54)nc(N)c32)n1)C(=O)O [Compound 38-1] | 1740 | – | 83.6 | – | – | –
11 | CC(C)(Cc1csc([C@]2(C)C(=O)Nc3nc(-c4nc(CCC(F)(F)C(F)(F)F)n5cc(F)ccc45)nc(N)c32)n1)C(=O)O [Compound 45-1] | 2850 | 4500 | 43.4 | – | – | –
12 | CC(C)(Cc1csc([C@]2(C)C(=O)Nc3nc(-c4nn(CCC(F)(F)C(F)(F)F)c5ncccc45)nc(N)c32)n1)C(=O)O [Control compound 1, reference compound] | 273 | 220 | – | – | – | –
13 | COC(=O)N(C)c1c(N)nc(-c2nn(Cc3ccccc3F)c3ncccc23)nc1N [riociguat, Riociguat] | – | – | – | 7 | 5 | 12
